Columns and labels:
MOLM-13 cells = assay: Cell proliferation assay (alamarBlue), MOLM-13; format: cell-based; details: acute myeloid leukaemia cell line, 96 h incubation
Description: (§1) In accordance with the invention, the ability of the substances to inhibit cell proliferation was determined. Cell viability was determined by means of the alamarBlue® reagent (Invitrogen) in a Victor X3 Multilabel Reader (Perkin Elmer). The excitation wavelength was 530 nm and the emission wavelength […].
The MOLM-13 cells (DSMZ, ACC 554) were sown at a concentration of 4000 cells/well in 100 μl of growth medium (RPMI1640, 10% FCS) on 96-well microtitre plates.
(§2) The MDA-MB-231 cells (DSMZ, ACC 732) were sown at a concentration of 4000 cells/well in 100 μl of growth medium (DMEM/Ham's F12 medium, 10% FCS) on 96-well microtitre plates. After overnight incubation at 37° C., the fluorescence values (CI values) were determined. Then the plates were treated with various substance dilutions (1E-5 M, 3E-6 M, 1E-6 M, 3E-7 M, 1E-7 M, 3E-8 M, 1E-8 M) and incubated at 37° C. for 72 (MV4-11, LOX-IMVI cells), 96 (MOLM-13, B16F10, […] cells), 120 (MOLP-8, KMS-12-PE cells) or 168 (LAPC-4 cells) hours. Subsequently, the fluorescence values were determined (CO values). For the data analysis, the CI values were subtracted from the CO values and the results were compared between cells which had been treated with various dilutions of the substance or only with buffer solution. This was used to calculate the IC50 values (substance concentration required for 50% inhibition of cell proliferation).
(§3) The substances were examined in the cell lines of Table 1 which, in an exemplary manner, represent the stated indications: […]

BRD4 (BD1) = target: T1, BRD4 (BD1) (Homo sapiens, UniProt O60885); assay: Binding assay BRD4/acetylated peptide H4 (TR-FRET protein-protein interaction assay); details: BRD4 (BD1) / acetylated histone H4 peptide
T1 construct: longer constructs also being possible, preferably amino acids 44-168; made in house; host or cells: E. coli
Description: To assess the BRD4 binding strength of the substances described in this application, the ability thereof to inhibit the interaction between BRD4 (BD1) and acetylated histone H4 in a dose-dependent manner was quantified.
For this purpose, a time-resolved fluorescence resonance energy transfer (TR-FRET) assay was used, which measures the binding between N-terminally His6-tagged BRD4 (BD1) (amino acids 67-152, longer constructs also being possible, preferably amino acids 44-168) and a synthetic acetylated histone H4 (Ac—H4) peptide with sequence GRGK(Ac)GGK(Ac)GLGK(Ac)GGAK(Ac)RHGSGSK-biotin. The recombinant BRD4 protein produced in-house according to Filippakopoulos et al., Nature, 2010, 468:1119-1123 was expressed in E. coli and purified by means of (Ni-NTA) affinity and (Sephadex G-75) size exclusion chromatography. The Ac—H4 peptide can be purchased, for example, from Biosyntan (Berlin, Germany).
In the assay, typically 11 different concentrations of each substance (0.1 nM, 0.33 nM, 1.1 nM, 3.8 nM, 13 nM, 44 nM, 0.15 μM, 0.51 μM, 1.7 μM, 5.9 μM and 20 μM) were analysed as duplicates on the same microtitre plate. For this purpose, 100-fold concentrated solutions in DMSO were prepared by serial dilutions (1:3.4) of a 2 mM stock solution into a clear, 384-well microtitre plate (Greiner Bio-One, Frickenhausen, Germany). From this, 50 nl were transferred into a black test plate (Greiner Bio-One, Frickenhausen, Germany). The test was started by the addition of 2 μl of a 2.5-fold concentrated BRD4 solution (final concentration typically 10 nM in the 5 μl of reaction volume) in aqueous assay buffer [50 mM HEPES pH 7.5, 50 mM sodium chloride (NaCl), 0.25 mM CHAPS and 0.05% serum albumin (BSA)] to the substances in the test plate. This was followed by a 10-minute incubation step at 22° C. for the pre-equilibration of putative complexes between BRD4 and the substances.
The mixture was then incubated in the dark at 22° C. for one hour and then at 4° C. for at least 3 hours and for no longer than overnight. The formation of BRD4/Ac—H4 complexes was determined by the measurement of the resonance energy transfer from the streptavidin-Eu cryptate to the anti-6His-XL665 antibody present in the reaction. For this purpose, the fluorescence emission was measured at 620 nm and 665 nm after excitation at 330-350 nm in a TR-FRET measuring instrument, for example a Rubystar or Pherastar (both from BMG Lab Technologies, Offenburg, Germany) or a Viewlux (Perkin-Elmer). The ratio of the emissions at 665 nm and at […] was taken as an indicator of the amount of BRD4/Ac—H4 complexes formed.
The data (ratios) obtained were normalized, with 0% inhibition corresponding to the mean from the measurements for a set of controls (typically 32 data points) in which all the reagents were present. In these, in place of test substances, 50 nl of DMSO (100%) were used. Inhibition of 100% corresponded to the mean from the measurements for a set of controls (typically 32 data points) in which all the reagents except BRD4 were present. The IC50 was determined by regression analysis based on a 4-parameter equation (minimum, maximum, IC50, Hill; Y=max+(min−max)/(1+(X/IC50)^Hill)).

MOLP-8 cells = assay: Cell proliferation assay (alamarBlue), MOLP-8; format: cell-based; details: multiple myeloma cell line, 120 h incubation
Description: as §1
The MOLP-8 cells (DSMZ, ACC 569) were sown at a concentration of 4000 cells/well in 100 μl of growth medium (RPMI1640, 20% FCS) on 96-well microtitre plates.
as §2, §3

B16F10 cells = assay: Cell proliferation assay (alamarBlue), B16F10; format: cell-based; details: melanoma (BRAF wild-type) cell line, 96 h incubation
Description: as §1
The B16F10 cells (ATCC, CRL-6475) were sown at a concentration of 300-500 cells/well in 100 μl of growth medium (DMEM with phenol red, 10% FCS) on 96-well microtitre plates.
as §2, §3

IC50 (MOLM-13 cells; Homo sapiens, MOLM-13)	IC50 (BRD4 (BD1))	IC50 (B16F10 cells; Mus musculus, B16-F10)	IC50 (MOLM-13 cells)	IC50 (B16F10 cells)	Structure (SMILES)	IC50 (MOLP-8 cells; Homo sapiens, MOLP-8)	IC50 (MOLP-8 cells)
220 nM	50 nM	100 nM	–	–	CNC(=O)N1N=C(c2ccc(N3CCC4(COC4)C3)cc2)c2cc(OC)c(OC)cc2CC1C (racemic) [Example 29, (±)-7,8-dimethoxy-N,4-dimethyl-1-[4-(2-oxa-6-azaspiro[3.4]oct-6-yl)phenyl]-4,5-dihydro-3H-2,3-benzodiazepine-3-carboxamide]	90 nM	–
420 nM	170 nM	420 nM	–	–	CNC(=O)N1N=C(c2ccc(N3CC4(CCC4)C3)cc2)c2cc(OC)c(OC)cc2CC1C (racemic) [Example 37, (±)-1-[4-(2-Azaspiro[3.3]hept-2-yl)phenyl]-7,8-dimethoxy-N,4-dimethyl-4,5-dihydro-3H-2,3-benzodiazepine-3-carboxamide]	450 nM	–
170 nM	100 nM	400 nM	–	–	CNC(=O)N1N=C(c2ccc(N3CC4(CN(C)C4)C3)cc2)c2cc(OC)c(OC)cc2CC1C (racemic) [Example 38, (±)-7,8-Dimethoxy-N,4-dimethyl-1-[4-(6-methyl-2,6-diazaspiro[3.3]hept-2-yl)phenyl]-4,5-dihydro-3H-2,3-benzodiazepine-3-carboxamide]	140 nM	–
220 nM	80 nM	170 nM	–	–	CNC(=O)N1N=C(c2ccc(N3CCC4(CC3)COC4)cc2)c2cc(OC)c(OC)cc2CC1C (racemic) [Example 12, (±)-7,8-dimethoxy-N,4-dimethyl-1-[4-(2-oxa-7-azaspiro[3.5]non-7-yl)phenyl]-4,5-dihydro-3H-2,3-benzodiazepine-3-carboxamide]	140 nM	–
500 nM	250 nM	140 nM	–	–	CNC(=O)N1N=C(c2ccc(N3CCC4(CCCC4)CC3)cc2)c2cc(OC)c(OC)cc2CC1C (racemic) [Example 9, (±)-1-[4-(8-azaspiro[4.5]dec-8-yl)phenyl]-7,8-dimethoxy-N,4-dimethyl-4,5-dihydro-3H-2,3-benzodiazepine-3-carboxamide]	460 nM	–

The remaining lines, values behind:

Structure (SMILES)	IC50 (MOLM-13 cells; Homo sapiens, MOLM-13)	IC50 (BRD4 (BD1))	IC50 (B16F10 cells; Mus musculus, B16-F10)	IC50 (MOLM-13 cells)	IC50 (B16F10 cells)	IC50 (MOLP-8 cells; Homo sapiens, MOLP-8)	IC50 (MOLP-8 cells)
CNC(=O)N1N=C(c2ccc(F)c(N3CC4(CCS4(=O)=O)C3)c2)c2cc(OC)c(OC)cc2CC1C (racemic) [Example 15, (±)-1-[3-(1,1-dioxido-1-thia-6-azaspiro[3.3]hept-6-yl)-4-fluorophenyl]-7,8-dimethoxy-N,4-dimethyl-4,5-dihydro-3H-2,3-benzodiazepine-3-carboxamide]	600 nM	250 nM	590 nM	–	–	480 nM	–
CNC(=O)N1N=C(c2ccc(N3CC4(CN(Cc5ccccc5)C4)C3)cc2)c2cc(OC)c(OC)cc2CC1C (racemic) [Example 10, (±)-1-[4-(6-benzyl-2,6-diazaspiro[3.3]hept-2-yl)phenyl]-7,8-dimethoxy-N,4-dimethyl-4,5-dihydro-3H-2,3-benzodiazepine-3-carboxamide]	150 nM	80 nM	150 nM	–	–	80 nM	–
CNC(=O)N1N=C(c2ccc(N3CC4(CN(C(=O)OC(C)(C)C)C4)C3)cc2)c2cc(OC)c(OC)cc2C[C@@H]1C [Example 8.1, tert-butyl 6-{4-[(4S)-7,8-dimethoxy-4-methyl-3-(methylcarbamoyl)-4,5-dihydro-3H-2,3-benzodiazepine-1-yl)phenyl}-2,6-diazaspiro[3.3]heptane-2-carboxylate]	180 nM	60 nM	130 nM	–	–	100 nM	–
CNC(=O)N1N=C(c2ccc(N3CCC4OCCC4C3)cc2)c2cc(OC)c(OC)cc2CC1C (racemic) [Example 36, (±)-1-[4-(hexahydrofuro[3,2-c]pyridin-5(4H)-yl)phenyl]-7,8-dimethoxy-N,4-dimethyl-4,5-dihydro-3H-2,3-benzodiazepine-3-carboxamide]	150 nM	40 nM	70 nM	–	–	90 nM	–
CNC(=O)N1N=C(c2ccc(N3CC4(CCS4(=O)=O)C3)cc2)c2cc(-n3nc(C)cc3C)ccc2C[C@H]1C [Example 17.1, (4R)-8-(3,5-Dimethyl-1H-pyrazol-1-yl)-1-[4-(1,1-dioxido-1-thia-6-azaspiro[3.3]hept-6-yl)phenyl]-N,4-dimethyl-4,5-dihydro-3H-2,3-benzodiazepine-3-carboxamide]	6740 nM	1470 nM	5590 nM	–	–	4320 nM	–
CNC(=O)N1N=C(c2ccc(N3C[C@@H]4C[C@H]3CN4C)cc2)c2cc(OC)c(OC)cc2C[C@H]1C (relative stereo) [Example 40.1, [1S-[1R*,2(S*),4R*]]-7,8-Dimethoxy-N,4-dimethyl-1-[4-(5-methyl-2,5-diazabicyclo[2.2.1]hept-2-yl)phenyl]-4,5-dihydro-3H-2,3-benzodiazepine-3-carboxamide]	–	70 nM	–	200 nM	210 nM	–	100 nM
CNC(=O)N1N=C(c2ccc(-c3ccc4c(c3)OCO4)cc2)c2cc(OC)c(OC)cc2CC1C (racemic) [Example 27, (±)-1-[4-(1,3-benzodioxol-5-yl)phenyl]-7,8-dimethoxy-N,4-dimethyl-4,5-dihydro-3H-2,3-benzodiazepine-3-carboxamide]	480 nM	110 nM	350 nM	–	–	460 nM	–
CNC(=O)N1N=C(c2ccc(N3C[C@@H]4C[C@H]3CN4C)cc2)c2cc(OC)c(OC)cc2CC1C (relative stereo) [Example 40, [1S-(1R*,4R*)]-7,8-Dimethoxy-N,4-dimethyl-1-[4-(5-methyl-2,5-diazabicyclo[2.2.1]hept-2-yl)phenyl]-4,5-dihydro-3H-2,3-benzodiazepine-3-carboxamide]	390 nM	180 nM	450 nM	–	–	240 nM	–

Reference: patent US20160129011A1, “BICYCLO 2,3-BENZODIAZEPINES AND SPIROCYCLICALLY SUBSTITUTED 2,3-BENZODIAZEPINES” (BAYER PHARMA AKTIENGESELLSCHAFT, priority 2013, published 2016)
